Reference: patent US20120207763A1, “PYRROLOPYRIMIDINE COMPOUNDS AND THEIR USES” (ASTEX THERAPEUTICS LIMITED, priority 2006, published 2012)
Read-outs that look alike come from different tables or passages of the source.

How the values were obtained:
Format in all cases: biochemical
[1] = target: CDK2/Cyclin-A kinase complex (Homo sapiens, UniProt P24941); assay: CDK2 IMAP fluorescence polarization assay
Method in brief: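 Fluorescence polarization (IMAP) using purified active CDK2/Cyclin-A complex with a TAMRA-tagged Histone H1-derived peptide substrate; phosphorylated peptide bound by a metal-containing reagent raises polarization. Inhibition read as reduced fluorescence polarization signal.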

CDK4 = CDK4 (Homo sapiens, UniProt P11802); assay: CDK4 HTRF assay; conditions: Table E; read-out: CDK4 HTRF/IC50 [umol l − 1]
[2] = target: CDK4/Cyclin-D1 kinase complex (Homo sapiens, UniProt P11802); assay: CDK4 ELISA based assay, Rb Ser780 phosphorylation
Text: The compounds that inhibit the CDK4 kinase activity would inhibit the signal output of the assay.

[3] = Table E, read-out: CDK2cyA IMAP/IC50 [umol l − 1]
[4] = Table E, read-out: CDK4 ELISA assay IC50 [umol l−]

Chain of CDK4 (P11802 whole entry): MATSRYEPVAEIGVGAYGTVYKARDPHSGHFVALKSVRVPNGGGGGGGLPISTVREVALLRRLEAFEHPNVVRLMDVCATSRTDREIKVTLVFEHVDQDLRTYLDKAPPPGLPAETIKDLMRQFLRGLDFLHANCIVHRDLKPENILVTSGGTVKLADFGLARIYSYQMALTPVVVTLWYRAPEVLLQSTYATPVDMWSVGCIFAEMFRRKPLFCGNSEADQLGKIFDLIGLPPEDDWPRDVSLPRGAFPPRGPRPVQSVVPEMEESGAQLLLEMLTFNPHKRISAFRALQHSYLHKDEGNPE
Chain of CDK4 (P24385 whole entry partner): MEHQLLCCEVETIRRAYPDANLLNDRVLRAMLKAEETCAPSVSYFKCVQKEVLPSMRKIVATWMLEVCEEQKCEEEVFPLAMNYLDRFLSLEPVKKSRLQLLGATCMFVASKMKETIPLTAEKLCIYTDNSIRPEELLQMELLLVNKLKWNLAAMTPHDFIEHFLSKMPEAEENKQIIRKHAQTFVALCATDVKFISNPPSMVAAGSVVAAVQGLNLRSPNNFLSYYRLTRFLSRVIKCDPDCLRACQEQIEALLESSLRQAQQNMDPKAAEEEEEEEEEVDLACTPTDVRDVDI
Chain of CDK4/Cyclin-D1 kinase complex (P11802 whole entry): as the sequence (P11802 whole entry) above
Chain of CDK4/Cyclin-D1 kinase complex (P24385 whole entry partner): as the sequence (P24385 whole entry partner) above

`CCC(CC)n1c(COC)cc2cnc(Nc3ccc(N4CCNCC4)cc3)nc21` [Example 382] showed an IC50 [1, 3] of less than 10 µM, an IC50 (CDK4) of less than 1 µM and an IC50 [2, 4] greater than 10 µM.
For `CCC(CC)n1c(C(=O)O)cc2cnc(Nc3ccc(N4CCNCC4)cc3)nc21` [Example 375, 7-(1-Ethyl-propyl)-2-(4-piperazin-1-yl-phenylamino)-7H-pyrrolo[2,3-d]pyrimidine-6-carboxylic acid], the IC50 [1, 3] was less than 1 µM, the IC50 (CDK4) was less than 1 µM and the IC50 [2, 4] was less than 1 µM.
For `CCC(CC)n1c(C(=O)O)cc2cnc(Nc3ccc(N4CCN(C(C)=O)CC4)cc3)nc21` [Example 374, 2-[4-(4-Acetyl-piperazin-1-yl)-phenylamino]-7-(1-ethyl-propyl)-7H-pyrrolo[2,3-d]pyrimidine-6-carboxylic acid], the IC50 [1, 3] was less than 1 µM, the IC50 (CDK4) was less than 1 µM and the IC50 [2, 4] was less than 1 µM.
Work on `CC(=O)c1c(C)c2cnc(Nc3ccc(N4CCNCC4)cc3)nc2n1C1CCCC1` [Example 383] yielded an IC50 [1, 3] of less than 1 µM, an IC50 (CDK4) of less than 1 µM and an IC50 [2, 4] of less than 1 µM.
With `CCC(CC)n1c(C=NOC)cc2cnc(Nc3ccc(N4CCN(C(C)=O)CC4)cc3)nc21` [Example 364] the IC50 [1, 3] was less than 10 µM, the IC50 (CDK4) was less than 1 µM and the IC50 [2, 4] was greater than 10 µM.
For `CCCC(C(=O)OCC)n1ccc2cnc(Nc3ccc(N4CCN(C(C)=O)CC4)cc3)nc21` (stereo not drawn) [Example 224], the IC50 (CDK4) was greater than 10 µM and the IC50 [2, 4] was greater than 10 µM.
Work on `Cc1cn(C2CCCCC2)c2nc(Nc3ccc4[nH]ncc4c3)ncc12` [Example 280] yielded an IC50 [1, 3] greater than 10 µM, an IC50 (CDK4) greater than 10 µM and an IC50 [2, 4] of less than 10 µM.
`CC(=O)c1cn(C2CCCC2)c2nc(Nc3ccc(N4CCNCC4)cc3)ncc12` [Example 326, 1-[7-cyclopentyl-2-(4-piperazin-1-yl-phenylamino)-7H-pyrrolo[2,3-d]pyrimidin-5-yl]-ethanone] showed an IC50 (CDK4) of 10 µM and an IC50 [2, 4] greater than 10 µM.
Molecule `CC(=O)N1CCN(c2ccc(Nc3ncc4ccn(C5CCCCCC5)c4n3)cc2)CC1` [Example 225] has an IC50 [1, 3] of less than 10 µM, an IC50 (CDK4) of less than 1 µM and an IC50 [2, 4] of less than 1 µM.
In the case of `CCC(CC)n1c(C=O)cc2cnc(Nc3ccc(N4CCN(C(C)=O)CC4)cc3)nc21` [Example 361, 2-[4-(4-Acetyl-piperazin-1-yl)-phenylamino]-7-(1-ethyl-propyl)-7H-pyrrolo[2,3-d]pyrimidine-6-carbaldehyde], the IC50 [1, 3] is reported as less than 1 µM, the IC50 (CDK4) is reported as less than 1 µM and the IC50 [2, 4] is reported as less than 1 µM.
With `Cc1cc2cnc(Nc3ccc(N4CCNCC4)cc3)nc2n1C1CCCC1` [Example 430] the IC50 [1, 3] was less than 1 µM, the IC50 (CDK4) was less than 1 µM and the IC50 [2, 4] was less than 1 µM.
For `CC(=O)c1c(C)c2cnc(Nc3ccc(N4CCNCC4)cn3)nc2n1C1CCCC1` [Example 387], the IC50 [1, 3] was 10 µM, the IC50 (CDK4) was less than 1 µM and the IC50 [2, 4] was less than 1 µM.
In the case of `CCC(CC)n1c(COC)cc2cnc(Nc3ccc(N4CCN(C(=O)OC(C)(C)C)CC4)cc3)nc21` [Example 381], the IC50 (CDK4) is reported as greater than 10 µM and the IC50 [2, 4] is reported as greater than 10 µM.
In the case of `c1cc2cn[nH]c2cc1Nc1ncc2ccn(C3CCCC3)c2n1` [Example 257], the IC50 [1, 3] is reported as less than 10 µM and the IC50 [2, 4] is reported as less than 10 µM.
With `CCC(CC)n1c(COC)cc2cnc(Nc3ccc(N4CCN(C(C)=O)CC4)cc3)nc21` [Example 379] the IC50 [1, 3] was greater than 10 µM and the IC50 [2, 4] was greater than 10 µM.
In the case of `CCC(CC)n1ccc2cnc(Nc3ccc(C(=O)N4CCOCC4)cc3)nc21` [Example 212], the IC50 [1, 3] is reported as less than 1 µM and the IC50 [2, 4] is reported as less than 10 µM.
In the case of `CCC(CC)N1C(=O)C(C)(C)c2cnc(Nc3ccc(N4CCN(C)CC4)cc3)nc21` [drawing 155], the IC50 ([1]; Table C, read-out: CDK2 IC50) is reported as less than 10 µM and the IC50 ([2]; Table C, read-out: CDK4 IC50) is reported as less than 10 µM.
With `CC(C)(C)OC(=O)N1CCN(c2ccc(Nc3ncc4ccn(C5CCCC5)c4n3)cc2)CC1` [Example 427] the IC50 (CDK4) was greater than 10 µM and the IC50 [2, 4] was greater than 10 µM.
`CCC(CC)N1C(=O)Cc2cnc(Nc3ccc(N4CCNCC4)cn3)nc21` showed an IC50 ([1]; Table C, read-out: CDK2 IC50) of less than 10 µM and an IC50 ([2]; Table C, read-out: CDK4 IC50) greater than 10 µM.
`CCC(C(=O)O)n1ccc2cnc(Nc3ccc(N4CCN(C(C)=O)CC4)cc3)nc21` (stereo not drawn) [Example 220] gave an IC50 (CDK4) greater than 10 µM and an IC50 [2, 4] greater than 10 µM.
`Cc1cn(C2CCCCC2)c2nc(Nc3ccc(N4CCN(C)CC4)cc3)ncc12` [Example 269] showed an IC50 [1, 3] greater than 10 µM and an IC50 [2, 4] of less than 10 µM.
With `CC(=O)N1CCN(c2ccc(Nc3ncc4c(C)cn(C5CC5)c4n3)cc2)CC1` [Example 275] the IC50 [1, 3] was greater than 10 µM, the IC50 (CDK4) was greater than 10 µM and the IC50 [2, 4] was 8 µM.
Work on `CCC(CC)n1ccc2cnc(Nc3ccc(N4CCN(C)CC4)cn3)nc21` [Example 207] yielded an IC50 [1, 3] greater than 10 µM and an IC50 [2, 4] of less than 10 µM.
`CC(=O)c1c(C)n(C2CCCC2)c2nc(Nc3ccc(N4CCNCC4)cc3)ncc12` [Example 333, 1-[7-Cyclopentyl-6-methyl-2-(4-piperazin-1-yl-phenylamino)-7H-pyrrolo[2,3-d]pyrimidin-5-yl]-ethanone] gave an IC50 [1, 3] of 10 µM, an IC50 (CDK4) of 10 µM and an IC50 [2, 4] of less than 10 µM.
`CCC(CC)n1ccc2cnc(Nc3ccc(N4CCN(C(C)=O)CC4)cn3)nc21` [Example 206] showed an IC50 [1, 3] greater than 10 µM and an IC50 [2, 4] greater than 10 µM.
`CCC(CC)n1c(CO)cc2cnc(Nc3ccc(N4CCN(C(C)=O)CC4)cc3)nc21` [Example 362, 1-(4-{4-[7-(1-Ethyl-propyl)-6-hydroxymethyl-7H-pyrrolo[2,3-d]pyrimidin-2-ylamino]-phenyl}-piperazin-1-yl)-ethanone] was tested, and the IC50 [1, 3] was less than 1 µM and the IC50 [2, 4] was greater than 10 µM.
Molecule `CCC(CC)n1ccc2cnc(Nc3ccc(C4CCCNC4)cc3)nc21` (stereo not drawn) [Example 211] has an IC50 [1, 3] of less than 10 µM and an IC50 [2, 4] of less than 10 µM.
